The values below are quoted from earlier work in patent US5780494A, “Piperidinyl-terminated alkylamino ethynl alanine amino diol compounds for treatment of hypertension” (G. D. Searle & Co., priority 1997, dated 1998).

The subject of one data set is hog renin. The settings on record: after the injection of hog renin into nephrectomized rats.

SMILES strings stand for the structures. Square brackets hold non-standard residues; d marks the D form. Peptide text beside a SMILES is read from it. * marks the point of attachment. Sta = CC(C)C[C@H](N)[C@@H](O)CC(=O)O; Isovaleryl = CC(C)CC(=O)*

As for `CC(C)CC(=O)N[C@H](C(=O)N[C@H](C(=O)N[C@@H](CC(C)C)[C@@H](O)CC(=O)N[C@@H](C)C(=O)N[C@@H](CC(C)C)[C@@H](O)CC(=O)O)C(C)C)C(C)C` [pepstatin] (Isovaleryl-VV[Sta]A[Sta]-OH), the inhibition of pepsin entry in the data set on pepsin was “inhibitor”. Moreover, in the data set on cathepsin D, the “inhibition of cathepsin D” value is “inhibitor”. The inhibition of renin result in the data set on renin is “inhibitor”. Also, the blood pressure reduction entry in the data set on hog renin is reported as “found to reduce blood pressure”.
